Key:
[1] = system: E1A-transformed RPE cells; test: Apoptosis in E1A-transformed RPE cells; format: cell-based, human; conditions: FIG. 4 left
Excerpt: Cell-based assays include model systems where primary human epithelial cells (“normal cells”) are compared to the same cells expressing the adenovirus E1A oncogene (“transformed cells”). Activation of p53 was not toxic to normal cells, but activation of p53 in transformed cells induces p53-mediated apoptosis. High concentrations of wild type (wt) p53 protein can induce apoptosis in a variety of different tumor cells. Potential inhibitors of MDM2 would regulate the stability and function of p53 and MDM2. Preferably the assays measure number of cells undergoing apoptosis due to MDM2 induced p53 degradation in tumor cells in the presence or absence of candidate compounds as compared to normal cells in the presence or absence of candidate compounds. An increase in the number of these cells undergoing apoptosis in the presence of candidate compounds in tumor cells, as compared to normal untreated cells is indicative of a potential anti-tumor compound. […]
Apoptosis and cell death were determined by FACS analysis of sub-G1 nuclei or counting trypan blue-positive cells under microscope. Caspase activity was measured using fluorogenic substrate Ac-DEVD-AFC and CytoFluor multi-well plate reader (PerSeptive Biosystems). […]

[2] = system: Normal human fibroblast MRC-5; test: Cell based assay for accumulation of MDM2 and p53 (immunoblot); conditions: MRC-5 cells, 50 μM, 8 hours
Experimental: Methods: Normal human fibroblast MRC-5 were chosen to determine whether the compounds from the high throughput screening can inhibit the E3 activity of Mdm2, i.e. stabilizing MDM2 and p53 in vivo. After being seeded in 12-well tissue culture cluster overnight, the cells were treated with 50 μM of the compounds for 8 hours. They were harvested with trypsin-EDTA, washed with PBS, and lysed with RIPA buffer. Following removal of insoluble pellet by centrifugation for 20 minutes at 10000 rpm, the lysate was separated on 4-20% gradient SDS-polyacrylamide gel and transferred onto nitrocellulose membrane. The membrane was then blotted with anti-p53 antibody (DO-1), anti-MDM2 antibodies (Ab-1 and Ab-2), anti-p27 (Santa Cruz), anti-Nedd4, and anti-p21Waf1 antibody. After extensive washing with PBS containing 0.5% Triton X-100, it was incubated with HRP-labeled donkey anti-mouse antibody and visualized using enhanced chemiluminescence.

**Q.** What does the source list for `COc1cccc2c1C(=O)c1c(O)c3c(c(O)c1C2=O)C[C@@](O)(C(=O)CO)C[C@@H]3O[C@H]1C[C@H](N)[C@H](O)[C@H](C)O1` [adriamycin, reference compound]?
**A.** apoptosis [1]: markedly increased apoptosis; p53 level [2]: increased only p53

From patent US7498336B2, “Deazaflavin compounds and methods of use thereof” (The United States of America as represented by the …, priority 2003, dated 2009)
